Laboratory results taken from ChEMBL document CHEMBL5728472, “Triazolopyrimidine, triazolopyridine compounds, and the composition thereof for treating PRC2-mediated diseases” (2021).

Molecular target: Histone-binding protein RBBP4/Histone-lysine N-methyltransferase EZH2/Polycomb protein EED/Polycomb protein SUZ12 (Homo sapiens, UniProt O75530+Q09028+Q15022+Q15910)
Assay: TR-FRET Assay: The TR-FRET method was used to measure the PRC2 enzyme activity. First, the enzyme was mixed with compounds at different concentrations and incubated for 30 min at room temperature. The biotin-labeled histone H3 peptide substrate and the cofactor S-adenosylmethionine (SAM) were added to initiate the enzymatic reaction. After reaction was performed at room temperature for 4 hour, Acceptor and Donor were added and incubated for half an hour. The multifunctional microplate reader EnVision (Perkin Elmer Inc.) was used to detect the fluorescence signal.
Type: protein-complex assay

Histone-binding protein RBBP4/Histone-lysine N-methyltransferase EZH2/Polycomb protein EED/Polycomb protein SUZ12, sequence (Q15910 whole entry): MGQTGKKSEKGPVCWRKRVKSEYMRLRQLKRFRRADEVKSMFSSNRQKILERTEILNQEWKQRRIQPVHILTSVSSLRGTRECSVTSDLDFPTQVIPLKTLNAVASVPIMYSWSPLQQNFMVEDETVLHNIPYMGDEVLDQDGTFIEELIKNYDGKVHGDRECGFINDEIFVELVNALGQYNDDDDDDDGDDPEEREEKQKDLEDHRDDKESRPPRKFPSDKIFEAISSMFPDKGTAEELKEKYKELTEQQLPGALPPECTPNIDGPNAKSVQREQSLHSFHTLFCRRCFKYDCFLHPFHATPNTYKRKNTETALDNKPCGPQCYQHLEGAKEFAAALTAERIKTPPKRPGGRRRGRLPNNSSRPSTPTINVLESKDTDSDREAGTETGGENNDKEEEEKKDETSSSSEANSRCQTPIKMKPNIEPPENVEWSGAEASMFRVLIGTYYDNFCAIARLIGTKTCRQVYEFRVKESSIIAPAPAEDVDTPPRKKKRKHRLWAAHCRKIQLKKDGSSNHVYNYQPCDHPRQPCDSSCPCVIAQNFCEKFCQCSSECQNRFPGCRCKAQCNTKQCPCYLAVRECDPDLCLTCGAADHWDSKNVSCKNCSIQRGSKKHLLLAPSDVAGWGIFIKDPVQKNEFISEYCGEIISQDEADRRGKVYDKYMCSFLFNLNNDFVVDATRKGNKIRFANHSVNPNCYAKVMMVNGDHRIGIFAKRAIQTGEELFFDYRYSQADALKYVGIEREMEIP
Histone-binding protein RBBP4/Histone-lysine N-methyltransferase EZH2/Polycomb protein EED/Polycomb protein SUZ12, sequence (O75530 whole entry): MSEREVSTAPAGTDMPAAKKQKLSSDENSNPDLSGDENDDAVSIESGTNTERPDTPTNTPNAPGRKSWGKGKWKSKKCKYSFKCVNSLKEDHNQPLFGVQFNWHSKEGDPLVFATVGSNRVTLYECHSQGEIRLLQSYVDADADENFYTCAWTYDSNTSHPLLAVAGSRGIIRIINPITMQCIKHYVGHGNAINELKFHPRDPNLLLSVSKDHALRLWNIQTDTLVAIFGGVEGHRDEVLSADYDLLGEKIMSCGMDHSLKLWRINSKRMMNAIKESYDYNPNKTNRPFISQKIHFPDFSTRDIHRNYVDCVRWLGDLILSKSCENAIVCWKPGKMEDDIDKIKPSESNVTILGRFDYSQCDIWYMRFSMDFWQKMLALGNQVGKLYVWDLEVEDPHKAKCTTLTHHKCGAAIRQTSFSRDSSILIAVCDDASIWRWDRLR
Histone-binding protein RBBP4/Histone-lysine N-methyltransferase EZH2/Polycomb protein EED/Polycomb protein SUZ12, sequence (Q15022 whole entry): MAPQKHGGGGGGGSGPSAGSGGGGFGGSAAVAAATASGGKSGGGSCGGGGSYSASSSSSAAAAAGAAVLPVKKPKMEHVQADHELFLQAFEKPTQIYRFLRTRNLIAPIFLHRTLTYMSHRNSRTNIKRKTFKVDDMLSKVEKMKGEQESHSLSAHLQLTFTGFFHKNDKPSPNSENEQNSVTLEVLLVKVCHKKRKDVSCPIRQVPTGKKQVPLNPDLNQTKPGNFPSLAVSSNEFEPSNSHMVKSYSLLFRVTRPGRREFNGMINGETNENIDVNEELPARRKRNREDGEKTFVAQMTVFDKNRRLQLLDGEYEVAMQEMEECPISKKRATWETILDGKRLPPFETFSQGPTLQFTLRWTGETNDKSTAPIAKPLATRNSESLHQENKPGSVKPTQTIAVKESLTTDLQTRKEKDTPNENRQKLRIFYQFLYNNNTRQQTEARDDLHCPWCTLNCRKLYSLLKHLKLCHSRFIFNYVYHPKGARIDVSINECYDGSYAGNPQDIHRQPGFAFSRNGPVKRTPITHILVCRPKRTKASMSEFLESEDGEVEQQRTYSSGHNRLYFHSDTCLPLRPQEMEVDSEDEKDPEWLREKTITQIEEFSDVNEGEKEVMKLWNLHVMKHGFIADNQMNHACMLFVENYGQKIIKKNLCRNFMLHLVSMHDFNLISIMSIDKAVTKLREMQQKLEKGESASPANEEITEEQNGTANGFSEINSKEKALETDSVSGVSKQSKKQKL
Histone-binding protein RBBP4/Histone-lysine N-methyltransferase EZH2/Polycomb protein EED/Polycomb protein SUZ12, sequence (Q09028 whole entry): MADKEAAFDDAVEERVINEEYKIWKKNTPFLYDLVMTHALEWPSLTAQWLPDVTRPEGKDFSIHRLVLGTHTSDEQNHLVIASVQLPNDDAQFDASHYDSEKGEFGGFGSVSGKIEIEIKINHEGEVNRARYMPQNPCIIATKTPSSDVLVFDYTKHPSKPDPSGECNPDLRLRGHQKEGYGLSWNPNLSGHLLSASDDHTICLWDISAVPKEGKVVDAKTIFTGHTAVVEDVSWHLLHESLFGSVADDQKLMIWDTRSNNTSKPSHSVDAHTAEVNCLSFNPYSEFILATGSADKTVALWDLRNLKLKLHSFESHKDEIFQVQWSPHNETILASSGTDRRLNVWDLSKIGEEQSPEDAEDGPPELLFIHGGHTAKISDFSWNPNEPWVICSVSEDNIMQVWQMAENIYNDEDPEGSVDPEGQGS

Compound	IC50 [nM]
COC(=O)N1CC=C(c2cnc(NCc3c(F)ccc4c3CCO4)n3cnnc23)CC1	2.5
Fc1ccc2c(c1CNc1ncc(C3=CCNCC3)c3nncn13)CCO2	218
